Test system: HIV-IIIb
Assay: Test A: Antiviral Assay in MT4 Cells
Format: cell-based
Details: Human immunodeficiency virus 1, IIIB, MT4, 120 h
Outline: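 MT-4 cells pre-infected with HIV-IIIb (0.004 m.o.i.) at 37 °C, then exposed to 3-fold serial compound dilutions (10 concentrations, quadruplicate) in RPMI 1640/10% FBS. After 5 days at 37 °C, viability read by CellTiter-Glo luminescence.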

In the case of `Cc1cc2nc(-c3ccnc(N4CCn5c(nnc5C(F)(F)F)C4)c3)sc2c(-c2ccc(Cl)cc2)c1[C@H](OC(C)(C)C)C(=O)O` [Compound 222, (S)-2-tert-butoxy-2-(7-(4-chlorophenyl)-5-methyl-2-(2-(3-(trifluoromethyl)-5,6-dihydro-[1,2,4]triazolo[4,3-a]pyrazin-7(8H)-yl)pyridin-4-yl)benzo[d]thiazol-6-yl)acetic acid], the EC50 is reported as 49 nM.

Same assay, conditions: Human immunodeficiency virus 1, IIIB, MT4, 120 h, Table 2; MT-4 cells infected with HIV-IIIb, 5 days of incubation, CellTiter-Glo; read-out: EC50

In order of rising EC50:
1. Cc1cc2nc(-c3ccc4c(c3)nc(C)n4C)sc2c(-c2ccc(Cl)cc2)c1[C@H](OC(C)(C)C)C(=O)O [Compound 217, (S)-2-tert-butoxy-2-(7-(4-chlorophenyl)-2-(1,2-dimethyl-1H-benzo[d]imidazol-5-yl)-5-methylbenzo[d]thiazol-6-yl)acetic acid]  7 nM
2. Cc1cc2nc(-c3ccnc(N4CCc5c(c(C)nn5C)C4)c3)sc2c(-c2ccc(Cl)cc2)c1[C@H](OC(C)(C)C)C(=O)O [Compound 224, (S)-2-tert-butoxy-2-(7-(4-chlorophenyl)-2-(2-(1,3-dimethyl-6,7-dihydro-1H-pyrazolo[4,3-c]pyridin-5(4H)-yl)pyridin-4-yl)-5-methylbenzo[d]thiazol-6-yl)acetic acid]  12 nM
3. Cc1cc2nc(-c3ccnc(-c4cc5c(C)nn(C)c5cn4)c3)sc2c(-c2ccc(Cl)cc2)c1[C@H](OC(C)(C)C)C(=O)O [Compound 234, (S)-2-tert-butoxy-2-(7-(4-chlorophenyl)-2-(2-(1,3-dimethyl-1H-pyrazolo[3,4-c]pyridin-5-yl)pyridin-4-yl)-5-methylbenzo[d]thiazol-6-yl)acetic acid]  13 nM
4. Cc1cc2nc(-c3cc4c(C)nn(C)c4cn3)sc2c(-c2ccc(Cl)cc2)c1[C@H](OC(C)(C)C)C(=O)O [Compound 235, (S)-2-tert-butoxy-2-(7-(4-chlorophenyl)-2-(1,3-dimethyl-1H-pyrazolo[3,4-c]pyridin-5-yl)-5-methylbenzo[d]thiazol-6-yl)acetic acid]  14 nM
5. Cc1cc2nc(-c3ccnc(-c4cc(C)c5nn(C)cc5c4)c3)sc2c(-c2ccc(Cl)cc2)c1[C@H](OC(C)(C)C)C(=O)O [Compound 216, (S)-2-tert-butoxy-2-(7-(4-chlorophenyl)-2-(2-(2,7-dimethyl-2H-indazol-5-yl)pyridin-4-yl)-5-methylbenzo[d]thiazol-6-yl)acetic acid]  15 nM
6. Cc1cc2nc(-c3ccnc(N4CCN(C(C)C)CC4)c3)sc2c(-c2ccc(Cl)cc2)c1[C@H](OC(C)(C)C)C(=O)O [Compound 221, (S)-2-tert-butoxy-2-(7-(4-chlorophenyl)-2-(2-(4-isopropylpiperazin-1-yl)pyridin-4-yl)-5-methylbenzo[d]thiazol-6-yl)acetic acid]  24 nM
7. Cc1cc2nc(-c3ccnc(-c4cccc5c4CC(=O)N5C)c3)sc2c(-c2ccc(Cl)cc2)c1[C@H](OC(C)(C)C)C(=O)O [Compound 236, (S)-2-tert-butoxy-2-(7-(4-chlorophenyl)-5-methyl-2-(2-(1-methyl-2-oxoindolin-4-yl)pyridin-4-yl)benzo[d]thiazol-6-yl)acetic acid]  31 nM
8. COc1ncccc1-c1cc(-c2nc3cc(C)c([C@H](OC(C)(C)C)C(=O)O)c(-c4ccc(Cl)cc4)c3s2)ccn1 [Compound 233, (S)-2-tert-butoxy-2-(7-(4-chlorophenyl)-2-(2′-methoxy-2,3′-bipyridin-4-yl)-5-methylbenzo[d]thiazol-6-yl)acetic acid]  33 nM
9. CCc1cnn2cc(-c3cc(-c4nc5cc(C)c([C@H](OC(C)(C)C)C(=O)O)c(-c6ccc(Cl)cc6)c5s4)ccn3)cnc12 [Compound 226, (S)-2-tert-butoxy-2-(7-(4-chlorophenyl)-2-(2-(3-ethylpyrazolo[1,5-a]pyrimidin-6-yl)pyridin-4-yl)-5-methylbenzo[d]thiazol-6-yl)acetic acid]  36 nM
10. Cc1cc2nc(-c3ccnc(N4CCN(C)CC4)c3)sc2c(-c2ccc(Cl)cc2)c1[C@H](OC(C)(C)C)C(=O)O [Compound 219, (S)-2-tert-butoxy-2-(7-(4-chlorophenyl)-5-methyl-2-(2-(4-methylpiperazin-1-yl)pyridin-4-yl)benzo[d]thiazol-6-yl)acetic acid]  39 nM
11. CCN1CCN(c2cc(-c3nc4cc(C)c([C@H](OC(C)(C)C)C(=O)O)c(-c5ccc(Cl)cc5)c4s3)ccn2)CC1 [Compound 220, (S)-2-tert-butoxy-2-(7-(4-chlorophenyl)-2-(2-(4-ethylpiperazin-1-yl)pyridin-4-yl)-5-methylbenzo[d]thiazol-6-yl)acetic acid]  43 nM
12. CCc1cnn2cc(-c3nc4cc(C)c([C@H](OC(C)(C)C)C(=O)O)c(-c5ccc(Cl)cc5)c4s3)cnc12 [Compound 227, (S)-2-tert-butoxy-2-(7-(4-chlorophenyl)-2-(3-ethylpyrazolo[1,5-a]pyrimidin-6-yl)-5-methylbenzo[d]thiazol-6-yl)acetic acid]  85 nM
13. Cc1cc2nc(-c3ccnc(-c4ccc[nH]c4=O)c3)sc2c(-c2ccc(Cl)cc2)c1[C@H](OC(C)(C)C)C(=O)O [Compound 232, (S)-2-tert-butoxy-2-(7-(4-chlorophenyl)-5-methyl-2-(2-(2-oxo-1,2-dihydropyridin-3-yl)pyridin-4-yl)benzo[d]thiazol-6-yl)acetic acid]  86 nM
14. Cc1cc2nc(-c3ccnc(-c4ccc5c(F)nn(C)c5c4)c3)sc2c(-c2ccc(Cl)cc2)c1[C@H](OC(C)(C)C)C(=O)O [Compound 225, (S)-2-tert-butoxy-2-(7-(4-chlorophenyl)-2-(2-(3-fluoro-1-methyl-1H-indazol-6-yl)pyridin-4-yl)-5-methylbenzo[d]thiazol-6-yl)acetic acid]  96 nM
15. Cc1cc2nc(-c3ccnc(N4CCOCC4)c3)sc2c(-c2ccc(Cl)cc2)c1[C@H](OC(C)(C)C)C(=O)O [Compound 218, (S)-2-tert-butoxy-2-(7-(4-chlorophenyl)-5-methyl-2-(2-morpholinopyridin-4-yl)benzo[d]thiazol-6-yl)acetic acid]  116 nM
16. Cc1cc2nc(-c3ccnc(-c4ccc(=O)[nH]c4)c3)sc2c(-c2ccc(Cl)cc2)c1[C@H](OC(C)(C)C)C(=O)O [Compound 230, (S)-2-tert-butoxy-2-(7-(4-chlorophenyl)-5-methyl-2-(2-(6-oxo-1,6-dihydropyridin-3-yl)pyridin-4-yl)benzo[d]thiazol-6-yl)acetic acid]  131 nM
17. Cc1cc2nc(-c3ccnc(N4CCn5cnnc5C4)c3)sc2c(-c2ccc(Cl)cc2)c1[C@H](OC(C)(C)C)C(=O)O [Compound 223, (S)-2-tert-butoxy-2-(7-(4-chlorophenyl)-2-(2-(5,6-dihydro-[1,2,4]triazolo[4,3-a]pyrazin-7(8H)-yl)pyridin-4-yl)-5-methylbenzo[d]thiazol-6-yl)acetic acid]  312 nM
18. Cc1cc2nc(-c3cccc(-n4cc(C)c(=O)[nH]c4=O)c3)sc2c(-c2ccc(Cl)cc2)c1[C@H](OC(C)(C)C)C(=O)O [Compound 228, (S)-2-tert-butoxy-2-(7-(4-chlorophenyl)-5-methyl-2-(3-(5-methyl-2,4-dioxo-3,4-dihydropyrimidin-1(2H)-yl)phenyl)benzo[d]thiazol-6-yl)acetic acid]  910 nM
19. Cc1cc2nc(-c3cccc(-n4ccc(=O)[nH]c4=O)c3)sc2c(-c2ccc(Cl)cc2)c1[C@H](OC(C)(C)C)C(=O)O [Compound 229, (S)-2-tert-butoxy-2-(7-(4-chlorophenyl)-2-(3-(2,4-dioxo-3,4-dihydropyrimidin-1(2H)-yl)phenyl)-5-methylbenzo[d]thiazol-6-yl)acetic acid]  1740 nM

Reference: patent US8987250B2 (Gilead Sciences, Inc., priority 2012, dated 2015)
